pIC50: −log10 of the molar value.
Target: T1, human adenosine A2b receptor (Homo sapiens, UniProt P29275)
T1 construct: expressed in transfected cells; host or cells: CHO-K1 (Chinese Hamster Ovary) with CRE-luciferase reporter
T1 sequence (P29275 1-332): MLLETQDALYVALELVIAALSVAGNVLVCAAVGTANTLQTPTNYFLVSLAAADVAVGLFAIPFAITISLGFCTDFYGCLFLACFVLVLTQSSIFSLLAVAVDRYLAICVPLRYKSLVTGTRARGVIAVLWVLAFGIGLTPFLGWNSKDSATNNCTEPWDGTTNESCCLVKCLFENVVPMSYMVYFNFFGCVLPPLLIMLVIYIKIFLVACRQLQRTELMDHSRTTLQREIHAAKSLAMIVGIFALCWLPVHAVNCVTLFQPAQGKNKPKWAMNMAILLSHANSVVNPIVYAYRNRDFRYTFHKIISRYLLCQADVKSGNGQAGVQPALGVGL
Experiment: Cellular reporter gene (CRE-luciferase) A2b receptor antagonist assay in recombinant CHO-K1 cells stimulated with NECA
Format: cell-based
Conditions: recombinant CHO-K1 cell line, co-incubation with EC50 concentration of NECA, 3 hours, in some cases means, rounded to two significant digits
Procedure: B-1. Cellular In Vitro Tests for Determining A2b Receptor Activity and Adenosine Receptor Selectivity
The identification of selective antagonists of the human adenosine A2b receptor and the quantification of the efficacy and selectivity of the compounds according to the invention was carried out with the aid of recombinant cell lines for the human adenosine receptors A1, A2a, A2b and A3. These cell lines were originally derived from an ovarepithelial cell of the hamster (Chinese Hamster Ovary, CHO-K1, American Type Culture Collection, Manassas, Va. 20108, USA). In addition to the respective recombinantly expressed adenosine receptor for testing the efficacy at the A1, A2a and A2b receptors, the cell lines contain a reporter gene construct where expression of the firefly (Photinus pyralis) luciferase is under the control of a promoter which can be activated via intracellular signal cascades by stimulation of the receptors with the (not subtype-selective) adenosine receptor agonist NECA (5′-N-ethylcarboxamidoadenosine) [S. J. Hill, J. G. Baker, S. Rhees, Curr. Opin. Pharmacol. 1, 526-532 (2001)].
In the case of the A2a and A2b cell lines, this is a minimal promoter having a plurality of cAMP-responsive elements (CRE). Stimulation of the Gs coupled A2b or A2a receptors by NECA ultimately leads, via formation of cAMP, to CRE-dependent induction of luciferase expression, which is detected 3 hours after the start of the incubation with NECA using a detection solution in a suitable luminometer. For testing the antagonists, initially, in a pre-experiment, the concentration of NECA which, at the test day in question, results in half-maximum stimulation of luciferase expression (EC50 concentration) is determined By joint incubation of this EC50 concentration of NECA with the substances to be tested, it is possible to determine their antagonistic activity.

| SMILES | pIC50 |
| --- | --- |
| Cc1c(C(=O)N2CCC(O)CC2)sc2c1c(=O)n(CCc1ccc(Cl)cc1)c(=O)n2CCC(F)(F)F [Example 13, 3-[2-(4-Chlorophenyl)ethyl]-6-[(4-hydroxypiperidin-1-yl)carbonyl]-5-methyl-1-(3,3,3-trifluoropropyl)thieno [2,3-d]pyrimidine-2,4(1H,3H)-dione] | 7.00 |
| CCn1c(=O)c2c(C)c(C(=O)N3CCC(O)(CO)CC3)sc2n(CCOC(F)(F)F)c1=O [Example 75, 3-Ethyl-6-{[4-hydroxy-4-(hydroxymethyl)piperidin-1-yl]carbonyl}-5-methyl-1-[2-(trifluoromethoxy)ethyl]thieno[2,3-d]pyrimidine-2,4(1H,3H)-dione] | 7.48 |
| Cc1c(C(=O)N2CCC(O)CC2)sc2c1c(=O)n(CCc1ccc(F)cc1)c(=O)n2CCC(F)(F)F [Example 12, 3-[2-(4-Fluorophenyl)ethyl]-6-[(4-hydroxypiperidin-1-yl)carbonyl]-5-methyl-1-(3,3,3-trifluoropropyl)thieno[2,3-d]pyrimidine-2,4(1H,3H)-dione] | 7.19 |
| Cc1c(C(=O)N2CCC(O)CC2)sc2c1c(=O)n(CC(C)c1ccccc1)c(=O)n2CCC(F)(F)F (single isomer, unassigned; enantiomer 1) [Example 44, 6-[(4-Hydroxypiperidin-1-yl)carbonyl]-5-methyl-3-(2-phenylpropyl)-1-(3,3,3-trifluoropropyl)thieno[2,3-d]pyrimidine-2,4(1H,3H)-dione (enantiomer 1)] | 8.34 |
| CCn1c(=O)c2c(C)c(C(=O)N3CCC(O)CC3)sc2n(CCOC(F)(F)F)c1=O [Example 56, 3-Ethyl-6-[(4-hydroxypiperidin-1-yl)carbonyl]-5-methyl-1-[2-(trifluoromethoxy)ethyl]thieno[2,3-d]pyrimidine-2,4(1H,3H)-dione] | 7.72 |
| Cc1c(C(=O)N2CCC(O)CC2)sc2c1c(=O)n(CC(F)c1ccccc1)c(=O)n2CCC(F)(F)F (single isomer, unassigned) [Example 102, 3-(2-Fluoro-2-phenylethyl)-6-[(4-hydroxypiperidin-1-yl)carbonyl]-5-methyl-1-(3,3,3-trifluoropropyl)thieno [2,3-d]pyrimidine-2,4(1H,3H)-dione] | 8.44 |
| CCn1c(=O)c2c(C)c(C(=O)N3CCC(O)CC3)sc2n(CCC(C)C)c1=O [Example 134, 3-Ethyl-6-[(4-hydroxypiperidin-1-yl)carbonyl]-5-methyl-1-(3-methylbutyl)thieno[2,3-d]pyrimidine-2,4(1H,3H)-dione] | 6.44 |
| CCn1c(=O)c2c(C)c(C(=O)N3CCC(O)(CC)CC3)sc2n(CCC(F)(F)F)c1=O [Example 113, 3-Ethyl-6-[(4-ethyl-4-hydroxypiperidin-1-yl)carbonyl]-5-methyl-1-(3,3,3-trifluoropropyl)thieno[2,3-d]pyrimidine-2,4(1H,3H)-dione] | 7.15 |
| Cc1c(C(=O)N2CCNC(=O)C2)sc2c1c(=O)n(CCc1ccccc1)c(=O)n2CCOC(F)(F)F [Example 129, 5-Methyl-6-[(3-oxopiperazin-1-yl)carbonyl]-3-(2-phenylethyl)-1-[2-(trifluoromethoxy)ethyl]thieno[2,3-d]pyrimidine-2,4(1H,3H)-dione] | 7.92 |
| Cc1c(C(=O)N2CCC(O)CC2)sc2c1c(=O)n(CC(F)c1ccccc1)c(=O)n2CCC(F)(F)F (single isomer, unassigned) [Example 103, 3-(2-Fluoro-2-phenylethyl)-6-[(4-hydroxypiperidin-1-yl)carbonyl]-5-methyl-1-(3,3,3-trifluoropropyl)thieno[2,3-d]pyrimidine-2,4(1H,3H)-dione] | 7.80 |
| CCn1c(=O)c2c(C)c(C(=O)N3CCNC(=O)C3(C)C)sc2n(CCC(F)(F)F)c1=O [Example 38, 6-[(2,2-Dimethyl-3-oxopiperazin-1-yl)carbonyl]-3-ethyl-5-methyl-1-(3,3,3-trifluoropropyl)thieno[2,3-d]pyrimidine-2,4(1H,3H)-dione] | 6.85 |
| CCn1c(=O)c2c(C)c(C(=O)N3[C@@H]4CC[C@H]3CC(O)C4)sc2n(CCC(F)(F)F)c1=O (stereo partly drawn) [Example 23, 3-Ethyl-6-[(3-hydroxy-8-azabicyclo[3.2.1]oct-8-yl)carbonyl]-5-methyl-1-(3,3,3-trifluoropropyl)thieno[2,3-d]pyrimidine-2,4(1H,3H)-dione] | 7.37 |
| CCn1c(=O)c2c(C(F)(F)F)c(C(=O)N3CCC(C)(O)CC3)sc2n(CCC(F)(F)F)c1=O [Example 82, 3-Ethyl-6-[(4-hydroxy-4-methylpiperidin-1-yl)carbonyl]-5-(trifluoromethyl)-1-(3,3,3-trifluoropropyl)thieno[2,3-d]pyrimidine-2,4(1H,3H)-dione] | 7.64 |
| Cc1c(C(=O)N2CCC(O)CC2)sc2c1c(=O)n(CC(F)(F)c1ccccc1)c(=O)n2CCC(F)(F)F [Example 51, 3-(2,2-Difluoro-2-phenylethyl)-6-[(4-hydroxypiperidin-1-yl)carbonyl]-5-methyl-1-(3,3,3-trifluoropropyl)thieno[2,3-d]pyrimidine-2,4(1H,3H)-dione] | 7.80 |
| CCn1c(=O)c2c(C(F)(F)F)c(C(=O)N3CCNC(=O)C3)sc2n(CCC(F)(F)F)c1=O [Example 42, 3-Ethyl-6-[(3-oxopiperazin-1-yl)carbonyl]-5-(trifluoromethyl)-1-(3,3,3-trifluoropropyl)thieno[2,3-d]pyrimidine-2,4(1H,3H)-dione] | 7.06 |
| CCn1c(=O)c2c(C)c(C(=O)N3CCC(O)C(O)C3)sc2n(CCC(F)(F)F)c1=O (racemic) [Example 119, 6-[(3,4-Dihydroxypiperidin-1-yl)carbonyl]-3-ethyl-5-methyl-1-(3,3,3-trifluoropropyl)thieno [2,3-d]pyrimidine-2,4(1H,3H)-dione] | 6.68 |
| COC(Cn1c(=O)c2c(C)c(C(=O)N3CCC(O)CC3)sc2n(CCC(F)(F)F)c1=O)C(F)(F)F (single isomer, unassigned) [Example 107, 6-[(4-Hydroxypiperidin-1-yl)carbonyl]-5-methyl-3-(3,3,3-trifluoro-2-methoxypropyl)-1-(3,3,3-trifluoropropyl)thieno[2,3-d]pyrimidine-2,4(1H,3H)-dione] | 7.35 |
| COC(Cn1c(=O)c2c(C)c(C(=O)N3CCC(O)CC3)sc2n(CCC(F)(F)F)c1=O)C(F)(F)F (racemic) [Example 66, 6-[(4-Hydroxypiperidin-1-yl)carbonyl]-5-methyl-3-(3,3,3-trifluoro-2-methoxypropyl)-1-(3,3,3-trifluoropropyl)thieno[2,3-d]pyrimidine-2,4(1H,3H)-dione (racemate)] | 6.55 |
| COc1ccc(CCn2c(=O)c3c(C)c(C(=O)N4CCC(O)CC4)sc3n(CCC(F)(F)F)c2=O)cc1 [Example 14, 6-[(4-Hydroxypiperidin-1-yl)carbonyl]-3-[2-(4-methoxyphenyl)ethyl]-5-methyl-1-(3,3,3-trifluoropropyl)thieno [2,3-d]pyrimidine-2,4(1H,3H)-dione] | 6.72 |
| CCCn1c(=O)c2c(C)c(C(=O)N3CCC(O)CC3)sc2n(CCOC(F)(F)F)c1=O [Example 60, 6-[(4-Hydroxypiperidin-1-yl)carbonyl]-5-methyl-3-propyl-1-[2-(trifluoromethoxy)ethyl]thieno[2,3-d]pyrimidine-2,4(1H,3H)-dione] | 7.92 |
| CCn1c(=O)c2c(C)c(C(=O)N3CCNC(=O)C3)sc2n(CCOC)c1=O [Example 37, 3-Ethyl-1-(2-methoxyethyl)-5-methyl-6-[(3-oxopiperazin-1-yl)carbonyl]thieno[2,3-d]pyrimidine-2,4(1H,3H)-dione] | 6.47 |

From patent US9604996B2 (Bayer Pharma Aktiengesellschaft, priority 2013, dated 2017)
